Measurements reported in patent US20130323753A1, “METHODS AND KITS FOR IDENTIFICATION OF ANTI-EXCITOTOXIC COMPOUNDS” (RUTGERS, THE STATE UNIVERSITY OF NEW JERSEY, priority 2007, published 2013).
Entries after “also recorded” stand apart in the source; their conditions may differ.

Legend:
[1] = at normal human levels; cited from earlier work
[2] = system: pure spinal cord neuron cultures; assay: Neuron survival (MAP-2+ count) in pure spinal cord neuron cultures, glutamate toxicity; assay type: cell-based, rat; settings: for neuron loss: 1 hour
Experimental: (§1) To grow pure spinal neuron cultures, SCM was changed to Neurobasal medium (NB; Neurobasal medium (Gibco) supplemented with B-27, penicillin, and streptomycin) at 24 hours after plating. After an additional 24 hours, cytosine arabinoside (Ara-C, 5 μM) was added to these cultures for 3 days after which the Ara-C containing media was changed to fresh NB media. Cells were treated 24 hours later.
(§2) When cells were treated with glutamate, the medium was replaced with solutions of glutamate in Locke's buffer, with or without UA, for 1 hour at 37° C. In control cultures, the medium was replaced with Locke's buffer. After 1 hour, glutamate solutions were changed to SCM or NB and UA was added at the same concentration. In all cases, same amount of Locke's buffer was added to control as vehicle. When the cultures were treated with Sin-1, the drug was added directly to the medium with or without UA, and the same amount of PBS and Locke's buffer were added to control as vehicle. In all cases, cells were incubated for another 24 hours at 37° C. before being fixed or harvested.
(§3) Cells were fixed with 4% paraformaldehyde for 30 minutes at room temperature. After washing with PBS, the cultures were incubated with anti-MAP-2 (1:500), anti-GFAP (1:1000), anti-CNPase (1:500), anti-vimentin (1:1000) or anti-CD11 (1:500) for 2 hours at room temperature. Positive cells were then visualized with Cy2 anti-mouse secondary antibodies.
(§4) For each well, pictures were taken for 10 random fields at a magnification of 100×. Cell number (as indicated by the appropriate immunostain) in each of the 10 pictures was counted by an experimenter blind to the condition. Cell numbers in control and treated groups were compared with one-way analysis of variance (ANOVA) using the Instat software program (Graph Pad).
To address this question, pure spinal cord neuron cultures were established. Twenty four hours after plating in SCM, SCM was changed to NB medium, which optimizes neuronal growth. Ara-C (5 μM) was added to the cultures after another 24 hours to eliminate the glial populations. The medium was changed after 3 days, and cells were treated 24 hours later. This procedure eliminated non-neuronal cell types in the cultures with only neurons surviving.
To determine the sensitivity of pure neuronal and mixed cultures to glutamate, pure spinal cord neuron cultures were established, and after 6 days, these cells were treated with glutamate for 1 hour. Cells were fixed after 24 hours and stained with anti-MAP-2 antibody. (A) Control cultures and cells treated with 2, 10, and 500 μM glutamate are illustrated. […] Results were derived from 3 independent experiments (n=7). ***p<0.001 by nonparametric ANOVA followed by Dunn's analysis comparing glutamate treated groups with control. Scale bar, 50 μm.
To examine whether UA can directly reduce glutamate toxicity in pure neuronal cultures, cells were treated with or without various concentrations of UA either concurrent with or at the termination of exposure to 10 μM glutamate. More specifically, six days after plating, pure spinal cord neuron cultures were treated with glutamate (10 or 500 μM) for 1 hour. UA (100 or 200 μM) was added with and after glutamate treatments. Cells were fixed after 24 hours and numbers of neurons that survived (MAP-2+) were counted. Results shown in FIG. 6 were derived from 2 independent experiments (n=6). ***p<0.001 by nonparametric ANOVA followed by Dunn's analysis for multiple comparisons comparing treated groups with control.

[3] = system: mouse spinal cord neuron cultures; settings: mouse spinal cord neuron cultures treated with UA; cited from earlier work
spinal cord neurons = assay: Neuron survival (MAP-2+ count) in mixed spinal cord cultures grown in SCM, glutamate toxicity; assay type: cell-based, rat; settings: for glutamate-elicited neuronal cell death, dose dependence: various concentrations of glutamate
Experimental: Spinal cords were dissected from embryonic day 16 (E16) rat embryos. Meninges were removed, and the cords were dissociated with gentle trituration. Cells were plated at a density of 350 neurons/mm^2.
as §2, §3, §4
Glutamate is the major physiological agent that mediates cell death after spinal cord injury. To examine the survival of spinal cord neurons in an in vitro model of SCI, mixed cell cultures derived from embryonic 16 (E16) rat spinal cords were treated with a range of concentrations of glutamate. These cells were grown in serum-containing medium (SCM) for 6 days (DIV 6) before being treated with various concentrations of glutamate for 1 hour. The brief exposure to high levels of glutamate mimics its temporary up-regulation after SCI. After glutamate was removed, cells were kept in SCM for another 24 hours before the cultures were fixed and immunostained. The numbers of surviving neurons were monitored with immunohistochemical labeling of MAP-2, a marker for neurons.
To determine whether UA can be used to prevent glutamate toxicity, initial experiments monitored the effects of UA on spinal cord neuron survival during basal conditions. DIV 6 cultures were treated with different concentrations of UA for 24 hours before being fixed and immunostained, and the numbers of neurons were counted. […] The results were derived from 2 independent experiments (n=6).
Further experiments were designed to reveal if UA could reduce neuronal cell death after glutamate exposure. Cells were treated with 500 μM glutamate with or without various concentrations of UA. UA was applied with glutamate and the same concentration of UA was added after the removal of glutamate. […] With high concentrations of UA, glutamate-promoted neuronal cell death was abolished (FIG. 3B). The results were derived from 6 independent experiments (n=12).

EAAT-1 = assay: Western blot of EAAT-1 protein in mixed spinal cord cultures; assay type: cell-based, rat
Experimental: (§5) At DIV 7, control and treated mixed spinal cord cultures grown on 35 mm dishes were scraped and protein was harvested in TEEN (25 mM Tris-HCl, pH 7.4, 1 mM EDTA, 1 mM EGTA, 100 mM NaCl) supplemented with 1 mM phenylmethylsulfonyl fluoride (PMSF). Proteins were resolved on 10% SDS-polyacrylamide gels and transferred to PVDF membranes.
(§6) After blocking with 3% bovine serum albumin (BSA), the membrane was incubated with primary antibodies: anti-EAAT-1 (goat polyclonal antibody from Santa Cruz Inc., 1:500) overnight at 4° C.; anti-EAAT-2 (goat polyclonal antibody from Santa Cruz Inc., 1:500) overnight at 4° C.; or anti-actin (mouse monoclonal antibody from Sigma-Aldrich, 1:2000) for 1 hour at room temperature (RT). After washing, the secondary antibody, horseradish peroxidase linked IgG (anti-goat for EAAT-1 and EAAT-2, anti-mouse for actin), was applied at 1:2000 for one hour at RT. The bands were visualized using the enhanced chemiluminescence (ECL) system (Amersham Biosci.).
(§7) The results of the Western blot experiments were analyzed with Universal Hood Gel Documentation Systems and Quantity One V4.2.1 software (BIO-RAD).
(§8) Additional studies examined whether UA affects protein expression of EAAT-1 and EAAT-2. […]

[4] = system: pure spinal cord neuron cultures; assay: Sin-1 (peroxynitrite donor) toxicity in pure spinal cord neuron cultures; assay type: cell-based, rat; settings: Sin-1 250 μM 1-hr
Experimental: as §1
THA was dissolved in PBS.
as §2
Results were derived from 2 independent experiments (n=6). ***p<0.001 by parametric ANOVA followed by Bonferroni Multiple Comparisons Test.

[5] = system: spinal cord neurons co-cultured with astroglia; assay: Astroglia re-plated onto pure spinal cord neuron cultures, glutamate toxicity; assay type: cell-based, rat; settings: glutamate 50 μM 1 hour, then 100 μM UA
Experimental: Spinal cord astroglial cultures were derived from postnatal day 1 rats using a modified approach from MaCarthy and de Vellis (McCarthy and deVellis 1980). Spinal cords were dissected and dissociated with trituration. Cells were plated in tissue culture flasks at density of 1000 cells/mm^2. Cultures were grown in NM-15 medium (84.4% MEM, 15% Fetal Bovine Serum, 0.6% glucose, supplemented with penicillin and streptomycin) for 9 days. Medium was changed every 3 days. The flasks were then shaken at 400×rpm for 20 minutes before the medium was changed and the floating cells (mostly microglia) were washed away. The flasks were again shaken overnight at 250×rpm to remove attached oligodendrocytes and remaining microglia. Following shaking, floating cells were washed away and medium was changed. Ara-C was added to final concentration of 10 μM to reduce the number of undifferentiated cells. Cultures were grown for 3 additional days before being trypsinized and re-plated at a density of 500 cells/mm^2 in SCM. These cultures only contain GFAP+ and vimentin+ astroglia. Staining for MAP-2 and CNPase were negative.
To determine the contribution of direct astroglial cell presence to the neuroprotective effects of UA, astroglial cultures were grown for 5 days in SCM before the cells were trypsinized and plated onto pure spinal cord neuron cultures grown for 5 days in vitro (DIV 5). […]

EAAT-2 = assay: Western blot of EAAT-2 protein in mixed spinal cord cultures; assay type: cell-based, rat; settings: UA 100 μM 24 hours, glutamate, or glutamate and UA
Experimental: as §5, §6, §7, §8

spinal cord injury = settings: pre-treatment and concurrent treatment with UA; cited from earlier work

In the case of `O=c1[nH]c(=O)c2[nH]c(=O)[nH]c2[nH]1` [UA, uric acid], the “carbon dioxide binding with peroxynitrite, times faster than UA” value [1] is listed as 920 times, the “effect of UA itself on neuron survival” value ([2]; UA 100 or 200 μM) is listed as “no effect on neuron survival” and the “protection against glutamate toxicity” value ([2]; UA 100 or 200 μM with and after glutamate (10 or 500 μM, 1 hour)) is listed as “did not show any protection against glutamate toxicity; also recorded: did not alter the neuron loss; also recorded: did not protect spinal cord neurons against glutamate toxicity; also recorded: does not decrease glutamate toxicity”. For the same molecule, the peroxynitrite toxicity [3] was “blocked peroxynitrite toxicity”, the “cell loss elicited by glutamate at 100 μM UA” value (spinal cord neurons; 100 μM UA, cultures grown in SCM) was “reversed the cell loss” and the “effect on glutamate toxicity, UA added with and after glutamate” value (spinal cord neurons; 500 μM glutamate 1 hour, various concentrations of UA, mixed cultures) was “blocked glutamate toxicity in a dose-dependent manner”. The “glutamate-promoted neuronal cell death at high concentrations of UA” value (spinal cord neurons; 500 μM glutamate, high concentrations of UA added with and after glutamate, mixed cultures) was “abolished”, the “effect on survival of spinal cord neurons during basal conditions” value (spinal cord neurons; UA different concentrations, 24 hours, DIV 6 mixed cultures, no glutamate) was “no effect on the survival of spinal cord neurons; also recorded: does not affect survival of spinal cord neurons” and the “EAAT-1 protein expression normalized to actin” value (EAAT-1; UA 100 μM, 24 hours, mixed cultures DIV 6) was “upregulated”. For the same molecule, the “EAAT-1 protein expression, glutamate prior to UA” value (EAAT-1; glutamate 500 μM 1 hour, then UA 100 μM) was “did not influence UA actions in increasing EAAT-1 protein expression”, the “toxicity elicited by Sin-1, UA added after Sin-1” value ([4]; UA 100 μM added after) was “did not elicit a reversal of toxicity” and the “toxicity elicited by Sin-1, UA concurrently present” value ([4]; UA 100 μM concurrent) was “significantly reversed; also recorded: reduces damages elicited by Sin-1 treatment”. For the same molecule, the “toxic effects of glutamate in astroglia/neuron combined cultures” value [5] was “blocked the toxic effects of glutamate; also recorded: reinstates the effects of UA in reducing glutamate toxicity”, the “EAAT-2 protein expression normalized to actin” value (EAAT-2) was “not altered” and the secondary damage (spinal cord injury) was “reduced secondary damage”.

In the case of `N[C@@H](CCC(=O)O)C(=O)O` [glutamate], the neuron loss ([2]; glutamate 10 μM) is reported as “more than 80%”, the neuron loss ([2]; glutamate 500 μM) is reported as “essentially eliminated all neurons; also recorded: almost total neuron elimination” and the “cell loss, dose dependence” value ([2]; glutamate 1 hour) is reported as “dose-dependent cell loss”. For the same molecule, the “neurons that did not survive” value (spinal cord neurons; glutamate 500 μM and 1 mM, 1 hour, mixed cultures, fixed 24 hours later) was “approximately 40%”, the “glutamate-elicited neuronal cell death, dose dependence” value (spinal cord neurons; mixed cultures, 1 hour) was “increased in a dose-dependent manner” and the “glutamate-elicited neuronal cell death, dose dependence” value (spinal cord neurons; mixed cultures, 1 hour, listed as Glutamate) was “induces loss of spinal cord neurons in a dose-dependent manner”.
